Here are results for ten compounds from US5834491A, “Bis(2-aminopyridine)s, preparation method therefor and use thereof for controlling parasitic infections” (priority 1994, dated 1998).

In series [1] the test system is biosynthesis of phosphatidylcholine. The series can be described thus: Specificity towards phosphatidylcholine biosynthesis relative to other macromolecules (radiolabelled precursor incorporation). To be noted: relative to nucleic acids, proteins, other phospholipids. It counts as cell-based. On the procedure: Verification of the mechanism of action is carried out on the various derivatives according to the invention by studying the specific interference with phospholipid biosynthesis and measuring the biosynthesis of the different biomolecules, nucleic acids, proteins and phospholipids, on the basis of the incorporation of radiolabelled precursors, [^3 H]hypoxanthine (see above), [^3 H]isoleucine and [^3 H]choline. The specificity in the precise realm of phospholipid metabolism is determined by comparison with the effect on the incorporation of [^3 H]ethanolamine into phosphatidylethanolamine (Ancelin M. L., Vialettes F. and Vial H. J., 1991, Anal. Biochem., 199, 203-209).

Series [2] has as its system Plasmodium vinckei, petteri or chabaudi. As to the kind of experiment: Antimalarial activity in vivo, infected mice, 4 days. The arrangement: species or system petteri or chabaudi (male Swiss mice). To be noted: ip, I.P., twice daily for 4 consecutive days. On the procedure: This activity is measured according to the test described by PETERS W. (Chemotherapy and Drug resistance in Malaria, 1970). A compound according to the invention is administered for 4 consecutive days to mice infected beforehand with malaria using Plasmodium vinckei, petteri or chabaudi.
The said compound is dissolved in 0.9% aqueous NaCl solution or, where appropriate, in 10% aqueous gum arabic solution. The preparations are thus administered intraperitoneally or subcutaneously to male Swiss mice of average weight 30 to 40 g which have been infected beforehand intravenously with Plasmodium petterei or P. chabaudi (10^6 infected cells). The compound is administered twice daily for 4 consecutive days, the first injection being performed 2 hours after infestation, and the second 10 hours after. The parasitaemia is determined by means of a smear on the day following the end of the treatment.
The results are collated in Table II, in the form of an ED50 (dose of compound administered in vivo capable of a 50% inhibition of the growth of the parasites).

Series [3] is described as follows: Semi-chronic toxicity in vivo. The following applies: mouse, mice.
The test system of the next series is Plasmodium falciparum. The series can be described thus: Antimalarial activity in vitro towards Plasmodium falciparum ([3H]hypoxanthine incorporation, infected human erythrocytes). It counts as cell-based. The following applies: Erythrocyte, approximately 48 hours; for IC50 upper bound (active at tested concentration): Table I. The procedure:
Evaluation of the antimalarial activity in vitro is carried out according to the method of DESJARDINS, CANFIELD, HATNES and CHULAY (Antimicrob. Agents Chemother., 1979, 16, 710-718). A compound according to the invention is brought into contact for approximately 48 hours with human erythrocytes infected with Plasmodium falciparum. When a radioactive nucleic acid precursor, hypoxanthine, is added to the preparation, only erythrocytes infected with Plasmodium and not affected by the said compound incorporate this precursor. […] The results are presented in Table I below, in the form of an IC50 (or ED50) (concentration of compound capable of inhibiting in vitro the growth of the parasites by 50%).
The derivatives according to the above examples are tested at three concentrations, 100, 33 and 10 nanomolar.

The conditions of series [4]: cited from earlier work.
The conditions of series [5]: cited from earlier work. This is another data set of the same source.
Series [6] deals with Babesia. To be noted: cited from earlier work.
Series [7] concerns Babesia. The following applies: cited from earlier work. The source holds these as a separate data set.
In series [8] the test system is Babesia. The following applies: McColm 1984; cited from earlier work.

By ED50 is commonly meant the midpoint of the dose-response relation. Broadly, the LD50 is the dose expected to kill half of the subjects tested. A word on the pIC50: it is the negative decadic logarithm of the IC50, by convention in mol/L.

pIC50: −log10 of the molar value. Counter-ions that a name gives are not always drawn. Like-named read-outs stand apart in the source and are kept apart here.

Take `Cc1ccn(CCCCCCCCCCCCn2ccc(C)cc2=N)c(=N)c1` [Example 1, 1,1'-(1,12-dodecanediyl)bis(4-methyl-2(1H)-pyridinimine) dihydrobromide]: the “specificity of action towards the biosynthesis of phosphatidylcholine, relative to the biosyntheses of the other macromolecules” value in series [1] was “best specificity of action towards the biosynthesis of phosphatidylcholine”. The compound further came in with an ED50 in series [2] of 1.2 mg/kg. Also, the LD50 in series [3] (ip, I.P., 2 injections daily for four days, read-out: Toxicity LD50 I.P.) turned out to be 30 mg/kg; in series [3] (po, P.O., semi-chronic, four days, read-out: Toxicity LD50 P.O.) it was 365 mg/kg. Further, the IC50 upper bound (active at tested concentration) in the series with Plasmodium falciparum (33 nM, read-out: Plasmodium IC50 in vitro resp. at 33 nM) is less than 33 nM; in the series on Plasmodium falciparum (100 nM, read-out: Plasmodium IC50 in vitro resp. 100 nM) it was less than 100 nM. For the same compound, the negative-log IC50 (pIC50) in the series with Plasmodium falciparum (Table II) was 9.30.
Consider `C[C@H]1[C@H](OC(=O)CCC(=O)O)O[C@@H]2O[C@@]3(C)CC[C@H]4[C@H](C)CC[C@@H]1[C@@]24OO3` [artesunate], for which the half-life result in series [4] is “short half-life”. Moreover, in [5], the water-solubility entry was “low water-solubility”.
With `CCO[C@H]1O[C@@H]2O[C@@]3(C)CC[C@H]4[C@H](C)CC[C@@H]([C@H]1C)[C@@]24OO3` [artether], in series [4], the half-life result was “short half-life”. Further, the water-solubility result in series [5] was “low water-solubility”.
Take `C[C@H]1[C@@H](O)O[C@@H]2O[C@@]3(C)CC[C@H]4[C@H](C)CC[C@@H]1[C@@]24OO3` [dihydroartemisinine]: the half-life result in [4] is on record as “short half-life”. In addition, the water-solubility entry in series [5] is “low water-solubility”.
As to `O=C1C(O)=C(CCCCCCCCC2CCCCC2)C(=O)c2ccccc21` [menoctone], the “activity in vitro against Babesia” value in the series on Babesia [6] is recorded as “active in vitro”. Further, the “results in vivo against Babesia” value with Babesia [7] was “without, however, giving good results in vivo”.
For `CO[C@H]1/C=C/O[C@@]2(C)Oc3c(C)c(O)c4c(O)c(cc(O)c4c3C2=O)NC(=O)/C(C)=C\C=C\[C@H](C)[C@H](O)[C@@H](C)[C@@H](O)[C@@H](C)[C@H](OC(C)=O)[C@@H]1C` [rifamycin], the “resistance of Babesia” value in the series on Babesia [8] was “increased resistance”.
Consider `CN(C)C1C(=O)C(C(N)=O)=C(O)C2(O)C(=O)C3=C(O)c4c(O)cccc4C(C)(O)C3CC12` (stereo not shown) [tetracycline], for which the “activity in vitro against Babesia” value in the series with Babesia [6] is on record as “active in vitro”. Besides, the “results in vivo against Babesia” value with Babesia [7] is on record as “without, however, giving good results in vivo”.
In the case of `Nc1ncnc2c1ccn2[C@@H]1O[C@H](CO)[C@@H](O)[C@H]1O` [tubercidin], the “activity in vitro against Babesia” value with Babesia [6] was “active in vitro”. Further, the “results in vivo against Babesia” value with Babesia [7] is reported as “without, however, giving good results in vivo”.
Take `CC[C@H]1OC(=O)C[C@@H](O)[C@H](C)[C@@H](O[C@@H]2O[C@H](C)[C@@H](O[C@H]3C[C@@](C)(O)[C@@H](O)[C@H](C)O3)[C@H](N(C)C)[C@H]2O)[C@@H](CC=O)C[C@@H](C)C(=O)/C=C/C(C)=C/[C@@H]1CO[C@@H]1O[C@H](C)[C@@H](O)[C@@H](OC)[C@H]1OC` [tylosin]: the “resistance of Babesia” value with Babesia [8] is on record as “increased resistance”.
Consider gramicidin D, for which, in the series on Babesia [8], the “resistance of Babesia” value was “increased resistance”.
